# Assays:
# control rapeseed LPAAT = assay: LPAAT acyl-CoA specificity, control P2 preparation; format: biochemical; details: acyl-CoA donor varied at 5 μM, acceptor 12:0-LPA; 30 minute reaction
# Description: Detailed acyl-CoA chain-length specificity analysis of control P2 preparations and LPAAT-transformed line 5511-5 were determined as described above, using the original 30 minute reaction time. The acyl-CoA substrates for this analysis are present in methanol, and thus the assay also had the following modifications. The first solution placed in the assay vial was the volume of each radiolabeled acyl-CoA required for 5 μM final assay concentration. […] After mixing to redissolve the acyl-CoA off the vial wall, the reaction is started by addition of 25 μl of a 5-fold diluted P2 preparation and continued as before. Acyl-CoA substrates used in this analysis were 8:0, 10:0, 12:0, 14:0, 16:0, 18:0, and 18:1. The acceptor substrate in these assays was 12:0-LPA.
# bay LPAAT = assay: LPAAT activity assay, California bay P2 membrane preparation; format: biochemical, Umbellularia californica; details: P2 membrane preparation; acyl-CoA donor varied, acceptor 12:0-LPA
# Description: To assay for LPAAT activity, the sample is incubated with lysophosphatidic acid (LPA) and acyl-coenzyme A (acyl-CoA) substrates in buffered solution. The acyl substituents of the two substrates are chosen to correspond with the specificity of the enzyme being measured. […] The acyl group of one substrate is radioactively labeled in order to detect the product formed. In the examples which follow the acyl substituent of the acyl-CoA substrate is radiolabeled with ^14 C in the carboxyl group. LPAAT activity results in transfer of this acyl group from the acyl-CoA "donor" substrate to the LPA "acceptor" substrate, converting the latter into the product, phosphatidic acid (PA). LPAAT activity is measured as the amount of radioactive product formed in a given assay time. The PA product is radioactive as a result of the transferred radiolabeled acyl group at the central carbon atom of the molecule, and the quantity of PA formed may be determined by measuring radioactivity of the PA fraction. For this measurement, the PA is first separated from the acyl-CoA substrate by solvent partitioning, or by thin-layer chromatography (TLC).
# Rapeseed LPAAT = assay: LPAAT activity assay, rapeseed P2 membrane preparation; format: biochemical, Brassica napus; details: acyl-CoA donor varied, acceptor 12:0-LPA
# Description: (§1) To assay for LPAAT activity, the sample is incubated with lysophosphatidic acid (LPA) and acyl-coenzyme A (acyl-CoA) substrates in buffered solution. The acyl substituents of the two substrates are chosen to correspond with the specificity of the enzyme being measured. For example, to measure activity of an LPAAT having preference for medium-chain substrates, lauroyl-LPA (lauroyl-lysophosphatidic acid) and lauroyl-CoA may be used, to measure activity of an LPAAT preferring longer-chain acyl groups, oleoyl-LPA and oleoyl-CoA may be used, to measure activity of an LPAAT preferring very-long chain substrate, erucyl-LPA and erucyl-CoA may be used, and so on, depending upon the type of LPAAT to be tested. The acyl group of one substrate is radioactively labeled in order to detect the product formed. In the examples which follow the acyl substituent of the acyl-CoA substrate is radiolabeled with ^14 C in the carboxyl group. LPAAT activity results in transfer of this acyl group from the acyl-CoA "donor" substrate to the LPA "acceptor" substrate, converting the latter into the product, phosphatidic acid (PA). LPAAT activity is measured as the amount of radioactive product formed in a given assay time. The PA product is radioactive as a result of the transferred radiolabeled acyl group at the central carbon atom of the molecule, and the quantity of PA formed may be determined by measuring radioactivity of the PA fraction. For this measurement, the PA is first separated from the acyl-CoA substrate by solvent partitioning, or by thin-layer chromatography (TLC).
# (§2) 20 μl of the sample to be assayed for LPAAT activity is mixed with 217.5 μl of an assay ingredient mixture in a 4-ml, screw-cap vial. […] The incubation takes place in a water bath at 30° C., for 20-30 minutes.
# (§3) To stop the assay, 0.25 ml of 1M KCl in 0.2M H3 PO4 is added to the vial. At this point, 40 μl BSA (bovine serum albumin, fraction V) at 1 mg/ml are added, followed by 0.75 ml of a solution of 67 μg/ml unlabeled PA (acting as a "carrier" to facilitate partitioning) in chloroform/methanol (2:1, v/v). The chain lengths of the PA acyl groups are chosen to correspond to those used in the assay substrates. Upon thorough mixing of these components the radiolabeled PA product of the LPAAT reaction partitions into the organic phase and away from the unreacted acyl-CoA and LPA. The vial is centrifuged briefly at low speed to facilitate the separation of organic (lower) and aqueous (upper) phases. The aqueous phase is then removed and discarded. The total radioactivity extracted into the organic phase is determined by liquid scintillation counting; a 100 μl sample of the organic phase is transferred to a 20 ml scintillation vial and allowed to dry, and scintillation fluid (3-5 ml) is added to the vial. The radioactivity of the sample, after subtraction of the "minus-enzyme" or "minus-LPA" radioactivities, is taken as an approximate indication of the amount of PA formed in the LPAAT-catalyzed reaction and therefore of LPAAT activity.
# A more accurate estimation of the LPAAT activity may be obtained by separating the PA product from these contaminants by TLC. The remaining organic phase is applied to a silica TLC plate. […] After the plate has dried, the distribution of radioactivity is visualized and quantitated using an AMBIS radioanalytic imaging system (AMBIS Systems Inc., San Diego, Calif.). From prior application of standard lipid components the Rf of the PA is known. The radioactivity associated with the PA spot is expressed as a percentage of the total radioactivity of the assay sample loaded on the plate. This ratio provides an indication of the proportion of the scintillation counts which represent the PA product, and may be used to correct the counts to obtain the total PA radioactivity formed in the assay.
# A P2 membrane homogenate from immature embryos of developing rapeseed (Brassica napus) seeds is prepared essentially as described above, except as noted below.
# coconut LPAAT = biological target: T1, coconut LPAAT (Cocos nucifera, UniProt Q42670); assay: LPAAT activity assay, coconut P2 membrane preparation; format: biochemical; design: white endosperm tissue lining the inside of the endocarp can be dissected and collected; from tissue; host or cells: immature coconut endosperm, P2 membrane fraction; details: P2 membrane preparation; acyl-CoA donor varied, acceptor 12:0-LPA
# T1 sequence (Q42670 1-308): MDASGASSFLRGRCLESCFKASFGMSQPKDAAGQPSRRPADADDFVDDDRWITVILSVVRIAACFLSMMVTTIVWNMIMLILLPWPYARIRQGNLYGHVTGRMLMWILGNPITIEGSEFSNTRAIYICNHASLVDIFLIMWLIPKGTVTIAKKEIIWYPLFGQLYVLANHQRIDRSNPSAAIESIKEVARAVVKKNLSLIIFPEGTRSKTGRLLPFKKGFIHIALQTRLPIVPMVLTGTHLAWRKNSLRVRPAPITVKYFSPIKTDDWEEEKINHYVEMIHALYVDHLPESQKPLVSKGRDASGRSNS
# Description: as §1, §2, §3
# A more accurate estimation of the LPAAT activity may be obtained by separating the PA product from these contaminants by TLC. The remaining organic phase is applied to a silica TLC plate. Ascending chromatography is carried out for 50 minutes, using the solvent mixture chloroform/pyridine/88% formic acid (50:30:7, v/v). After the plate has dried, the distribution of radioactivity is visualized and quantitated using an AMBIS radioanalytic imaging system (AMBIS Systems Inc., San Diego, Calif.). From prior application of standard lipid components the Rf of the PA is known. The radioactivity associated with the PA spot is expressed as a percentage of the total radioactivity of the assay sample loaded on the plate. This ratio provides an indication of the proportion of the scintillation counts which represent the PA product, and may be used to correct the counts to obtain the total PA radioactivity formed in the assay. […]
SMILES,LPAAT Activity from Coconut (coconut LPAAT),"Cpm PA Product, Control (control rapeseed LPAAT)",LPAAT Activity from Bay (bay LPAAT),LPAAT Activity from Rapeseed (Rapeseed LPAAT)
CCCCCCCC(=O)SCCNC(=O)CCNC(=O)[C@H](O)C(C)(C)COP(=O)(O)OP(=O)(O)OC[C@H]1O[C@@H](n2cnc3c(N)ncnc32)[C@H](O)[C@@H]1OP(=O)(O)O [8:0],6 pmol PA formed/30 min assay,149 Cpm,13 pmol PA formed/30 min assay,2 pmol PA formed/30 min assay
"CCCCCCCCCCCC(=O)SCCNC(=O)CCNC(=O)[C@H](O)C(C)(C)COP(=O)(O)OP(=O)(O)OC[C@H]1O[C@@H](n2cnc3c(N)ncnc32)[C@H](O)[C@@H]1OP(=O)(O)O [12:0, lauroyl-CoA]",238 pmol PA formed/30 min assay,1758 Cpm,14 pmol PA formed/30 min assay,79 pmol PA formed/30 min assay
CCCCCCCCCCCCCC(=O)SCCNC(=O)CCNC(=O)[C@H](O)C(C)(C)COP(=O)(O)OP(=O)(O)OC[C@H]1O[C@@H](n2cnc3c(N)ncnc32)[C@H](O)[C@@H]1OP(=O)(O)O [14:0],61 pmol PA formed/30 min assay,1544 Cpm,5 pmol PA formed/30 min assay,16 pmol PA formed/30 min assay
"CCCCCCCC/C=C\CCCCCCCC(=O)SCCNC(=O)CCNC(=O)[C@H](O)C(C)(C)COP(=O)(O)OP(=O)(O)OC[C@H]1O[C@@H](n2cnc3c(N)ncnc32)[C@H](O)[C@@H]1OP(=O)(O)O [18:1, oleoyl-CoA]",9 pmol PA formed/30 min assay,7946 Cpm,5 pmol PA formed/30 min assay,218 pmol PA formed/30 min assay

# Further lines, with some results ahead:
LPAAT Activity from Coconut (coconut LPAAT),SMILES,"Cpm PA Product, Control (control rapeseed LPAAT)",LPAAT Activity from Bay (bay LPAAT),LPAAT Activity from Rapeseed (Rapeseed LPAAT)
43 pmol PA formed/30 min assay,CCCCCCCCCC(=O)SCCNC(=O)CCNC(=O)[C@H](O)C(C)(C)COP(=O)(O)OP(=O)(O)OC[C@H]1O[C@@H](n2cnc3c(N)ncnc32)[C@H](O)[C@@H]1OP(=O)(O)O [10:0],831 Cpm,10 pmol PA formed/30 min assay,12 pmol PA formed/30 min assay
21 pmol PA formed/30 min assay,CCCCCCCCCCCCCCCC(=O)SCCNC(=O)CCNC(=O)[C@H](O)C(C)(C)COP(=O)(O)OP(=O)(O)OC[C@H]1O[C@@H](n2cnc3c(N)ncnc32)[C@H](O)[C@@H]1OP(=O)(O)O [16:0],3034 Cpm,6 pmol PA formed/30 min assay,27 pmol PA formed/30 min assay
